Data taken from patent publication US20230122540A1, “SYSTEMS AND METHODS TO TRACK THE EVOLUTION OF SINGLE CELLS” (Genentech, Inc., priority 2020, published 2023).
Entries after “also recorded” stand apart in the source; their conditions may differ. Like-named read-outs stand apart in the source and are kept apart here.

Assays:
PC9 and H1975 cells = assay: Clonogenic / CellTiter-Glo assay with pharmacological ER stress modulators; format: cell-based
Protocol: (§1) Clonogenic assay: Cells were seeded at desired densities in two to three replicates in 6-well plates and allowed to attach overnight. The following day cells were treated with the indicated compounds. Media containing the appropriate compounds was replenished every 48-72 hours. At the end of the assay, the cells were washed once with PBS, fixed and stained with crystal violet solution (Sigma Aldrich, HT90132) for 20 minutes, washed with water, and allowed to dry before scanning. For experiments shown in FIG. 18E erlotinib concentration were determined to match the cell viability effect to 1 μM GNE-069 in each cell line, so that 1 μM erlotinib was applied to PC-9 and HCC2935, and 100 nM erlotinib was applied to HCC4006 and HCC827. For experiments shown in FIG. 27B, cells were treated with either DMSO or 1 μM ISRIB (Tocris Cat. No. 5284) for 24 h, and then co-treated with EGFR inhibitors for 8 days. For other experiments cells were treated with 1 μM GNE-104 for 24 h, and then co-treated with 0.5 μg/ml Tunicamycin (Sigma Aldrich, T7765), or 1 nM Thapsigargin (Sigma Aldrich, T9033) for three days.
Cell viability and cell death quantification: For experiments shown in FIGS. 24C, 27D, the indicated cells were seeded at desired densities in replicates in 24-well plates and allowed to attach overnight. The following day cells were treated with the indicated compounds. Media containing the appropriate compounds was replenished every 48 hours. At each media change, cell viabilities were quantified using CellTiter-Glo Luminescent Cell Viability Assay (Promega, G7572). For experiments shown in FIG. 191 and FIG. 29D, PC9 cells were seeded in replicates in 96-well plates and allowed to attach overnight. The following day cells were treated with the indicated compounds or compound combinations at the indicated concentrations. Induction of cell death was quantified 24 h post-treatment using Caspase-Glo 3/7 Assay System (Promega, G8093) and cell survival were measured 72 h post-treatment using CellTiter-Glo Luminescent Cell Viability Assay (Promega, G7572). […]

ATF4, CHOP, GADD34 = assay: qRT-PCR of pro-death genes downstream of ER stress; format: cell-based, human; details: for induction of pro-death ER stress genes: PC9 cells, with GNE-104, very low non-toxic concentrations; for expression of key pro-death ISR genes downstream of ER stress (ATF4, CHOP, GADD34): PC9, HCC4006 and NCI-H1975 cells
Protocol: RNA extraction and qRT-PCR: RNA was extracted using Qiagen RNeasy Plus kit following manufacturer's instruction. RNA was reverse transcribed using High-Capacity cDNA Reverse Transcription Kit (Thermo Fisher Scientific Cat. No. 4368814). qPCRs were performed using TaqMan™ Fast Advanced Master Mix (Thermo Fisher Scientific Cat. No. 4444557) on ABI QuantStudio 7 Flex Real-Time PCR Systems. HPRT1 was used as the internal control to quantify relative gene expression levels. Taqman probes were obtained from Thermo Fisher Scientific (Cat. No. 431182, 4448490). These probes were used in the study: ATF4 Hs00909569_g1, DDIT3/CHOP Hs00358796_g1, PPP1R15A/GADD34 Hs00169585_m1, SLC7A5 Hs01001183_m1, ETV4 Hs00385910_m1, SPRY4 Hs00540086_m1, DUSP6 Hs04329643_s1, HPRT1 Hs02800695_m1.

PC9 cells [1] = assay: TraCe-seq experiment (barcoded PC9 cells, scRNA-seq on day four); format: cell-based, human; details: for cell cycle arrest (GO): fraction of cells in GO state inferred by gene expression, day four
Protocol: To conduct the TraCe-seq experiment, 600 PC9 cells carrying unique barcodes were randomly selected and these cells were expanded for ˜12 doublings to establish the starting population. Single cell transcriptional profiling on a fraction of this population at ˜30× coverage of the barcodes was performed to record the baseline transcriptional programs and relative clonal abundance. 200K of these cells were seeded and were treated with either erlotinib, GNE-104, or GNE-069. Cells were harvested on day four and profiled by 10×scRNA-seq to determine the relative fitness of each clone and capture treatment-induced transcriptional changes (FIG. 17D).
TraCe-Seq barcode assignment: TraCe-Seq barcode recovery from scRNA-Seq FASTQs was performed using Salmon (v. 0.1.1). Briefly, custom augmented Salmon index was created using human reference GRCh38 and transgene GFP fused to one of 100,000 30-nt GC-optimized barcode in library. Transcript expression of demultiplexed per-cell FASTQs were then quantified using custom Salmon index. Cells with single GFP-barcode expression were assigned to corresponding TraCe-Seq barcode. Cells with multiple TraCe-Seq barcodes expressed were assigned to a single TraCe-Seq barcode if expression one TraCe-Seq was 3-fold higher than other detected TraCe-Seq barcodes.

H1975 cells = assay: Crystal violet viability of H1975 cells, Osimertinib plus Degrader (Example 3); format: cell-based, human; details: 100 nM Osimertinib 4 hours, then + 1 uM Degrader 24 hours
Protocol: H1975 cells were treated first for 4 hours with 100 nM of the kinase inhibitor Osimertinib, then subjected to co-treatment with 100 nM Osimertinib+1 uM of Degrader for 24 hours.

EGFR = molecular target: T1, EGFR (Homo sapiens, UniProt P00533, DEL746-750); assay: Western blot of EGFR and pEGFR in HCC827 cells; format: cell-based; details: for EGFR degradation: HCC827 cells
T1 construct: does-dependent EGFR degradation induced by GNE-104 in HCC827 cells; endogenous in cells; host or cells: HCC827
Protocol: Immunoblotting: Immunoblotting performed using standard methods. Cells were briefly washed in ice-cold PBS and lysed in the following lysis buffer (1% NP40, 50 mM Tris, pH 7.8, 150 mM NaCl, 5 mM EDTA) plus protease inhibitor mixture (Complete mini tablets, Roche Applied Science, 11836170001) and phosphatase inhibitor mix (Thermo Fisher Scientific, 78420). Lysates centrifuged at 15,000 rpm for 10 minutes at 4° C. and the protein concentration determined by BCA (Thermo Fisher Scientific, 23227). Equal amounts of protein were resolved by SDS-PAGE on NuPAGE, 4-12% Bis-Tris Gels (Thermo Fisher Scientific, WG-1403) and transferred to nitrocellulose membrane (Bio-Rad, 170-4159). Membranes were blocked in blocking buffer (Li-Cor, 927-40000), incubated overnight with the indicated primary antibodies and analyzed by the addition of secondary antibodies IRDye 680LT Goat anti-Mouse IgG (Li-Cor, 926-68050) or IRDye 800CW Goat anti-Rabbit IgG (Li-Cor, 926-32211). The membranes were visualized on a Li-Cor Odyssey CLx Scanner. Anti-EGFR (MI-12-1) purchased from Medical and Biological Labs, anti-pEGFR (3777), anti β-Tubulin (2146) and anti-β-Actin (4970) purchased from Cell Signaling Technology. IR-conjugated secondary antibodies Goat anti-Mouse 680LT (926-68020), and Goat anti-Rabbit 800CW (926-32211) purchased from Li-Cor.

[2] = test system: EGFR-mutant lung cancer cell lines; assay: Clonogenic and CellTiter-Glo assay in EGFR-mutant lung cancer cell lines; format: cell-based, human; details: multiple EGFR-mutant lung cancer cell lines, vs erlotinib or GNE-069
Protocol: as §1, with “For experiments shown in FIG. 27B, cells were treated with either DMSO or 1 μM ISRIB (Tocris Cat. No. 5284) for 24 h, and then co-treated with EGFR inhibitors for 8 days. For other experiments cells were treated with 1 μM GNE-104 for 24 h, and then co-treated with 0.5 μg/ml Tunicamycin (Sigma Aldrich, T7765), or 1 nM Thapsigargin (Sigma Aldrich, T9033) for three days.” left out
Cell viability and cell death quantification: For experiments shown in FIGS. 24C, 27D, the indicated cells were seeded at desired densities in replicates in 24-well plates and allowed to attach overnight. […] At each media change, cell viabilities were quantified using CellTiter-Glo Luminescent Cell Viability Assay (Promega, G7572). […] Induction of cell death was quantified 24 h post-treatment using Caspase-Glo 3/7 Assay System (Promega, G8093) and cell survival were measured 72 h post-treatment using CellTiter-Glo Luminescent Cell Viability Assay (Promega, G7572). […]

PC9 cells [3] = assay: scRNA-seq gene expression in barcoded PC9 cells (Example 3); format: cell-based, human; details: for ISR pathway / ATF4 and SLC7A5 expression: Day 5 of treatment; for canonical MAPK target gene expression: day 5 of treatment
From the text: The above-described workflow was used to evaluate adaptation of mutated EGFR lung cancer cells to treatment strategies including EGFR kinase inhibition (Erlotinib) and EGFR protein degradation (Degrader G-104 or Degrader) using the PC9 (non-small cell lung carcinoma) cell line model. Six hundred PC9 cells containing unique barcodes were expanded separately for 12 days. The clones were then pooled into groups of cells with replicate barcodes and subjected to a first scRNA-seq on Day 1. Subsequently, the groups of cells were treated with either DMSO (vehicle control), Erlotinib, or Degrader. On Day 5 of the treatment, a second scRNA-seq was performed to evaluate an initial response of the cells to the treatments. Treatment with Erlotinib or Degrader was continued for approximately two more months. At the endpoint of the treatment, a final scRNA-seq was performed on the surviving cells. scRNA-seq data was analyzed with Next Generation Sequencing technologies, and barcode quantities were determined for both treatments, as illustrated in FIGS. 4A-4B.
Single cell RNA-seq data was further analyzed to evaluate how Degrader resistant clones respond differently to Erlotinib versus Degrader. […] Compared to Degrader, Erlotinib activated genes involved in ER protein processing pathways.
Thus, PC9 cells were treated with either siNTC+Erlotinib, siEGFR+Erlotinib, or siEGFR+DMSO, then analyzed for ISR and MAPK genes after 72 hrs (via scRNA-seq), and assessed for cell viability at Day 6. […] Results shown in FIG. 11D illustrate decreased efficacy of Erlotinib when combined with siEGFR, as indicated by greater numbers of viable cells in the Erlotinib+siEGFR treatment group compared to treatment by only Erlotinib.

PC9 cells [4] = assay: Anti-growth effects in PC9 cells (clonogenic assay, cell counting, Incucyte imaging); format: cell-based, human; details: 1 μM
Protocol: Compound dose matching: […] Clonogenic assay: Cells were seeded at desired densities in two to three replicates in 6-well plates and allowed to attach overnight. The following day cells were treated with the indicated compounds. Media containing the appropriate compounds was replenished every 48-72 hours. At the end of the assay, the cells were washed once with PBS, fixed and stained with crystal violet solution (Sigma Aldrich, HT90132) for 20 minutes, washed with water, and allowed to dry before scanning. […] For experiments shown in FIG. 27B, cells were treated with either DMSO or 1 μM ISRIB (Tocris Cat. No. 5284) for 24 h, and then co-treated with EGFR inhibitors for 8 days.

PC9 cells [5] = assay: Initial response of PC9 cells to Erlotinib (viability, phase contrast imaging); format: cell-based, human; details: within five days, compared to the DMSO control
Protocol: Six hundred PC9 cells containing unique barcodes were expanded separately for 12 days. The clones were then pooled into groups of cells with replicate barcodes and subjected to a first scRNA-seq on Day 1. Subsequently, the groups of cells were treated with either DMSO (vehicle control) or Erlotinib. On Day 5 of the treatment, a second scRNA-seq was performed to evaluate an initial response of the cells to the treatments.

[6] = test system: common EGFR mutant variants; assay: in vitro kinase inhibition assay; format: biochemical; details: panel of 218 kinases
[7] = Crystal violet % Survival with ISR modulators (Example 3); format: cell-based
Protocol: Tunicamycin and Thapsigargin were used as inducers of ER stress, and Integrated Stress Response Inhibitor (ISRIB) was used to inhibit ISR activation. Cells were treated with Degrader, Degrader+Tunicamycin, or Degrader+Thapsigargin to assess the effect of ER stress on Degrader efficacy. In another experimental group, cells were treated either with Degrader, Erlotinib, or Erlotinib and ISRIB.

tunicamycin
cytotoxic activity of GNE-104 on co-treatment (PC9 and H1975 cells; PC9 cells, very low non-toxic concentrations of ER stress inducer): enhanced the cytotoxic activity of the degrader GNE-104
induction of pro-death ER stress genes (ATF4, CHOP, GADD34): greatly induced pro-death ER stress genes

C/C=C(/C)C(=O)O[C@H]1C(C)=C2[C@H]([C@@H]1OC(=O)CCCCCCC)[C@@](C)(OC(C)=O)C[C@H](OC(=O)CCC)[C@@]1(O)[C@H]2OC(=O)[C@@]1(C)O [thapsigargin]
cytotoxic activity of GNE-104 on co-treatment (PC9 and H1975 cells): enhanced the cytotoxic activity of the degrader GNE-104
induction of pro-death ER stress genes (ATF4, CHOP, GADD34): greatly induced pro-death ER stress genes

C#Cc1cccc(Nc2ncnc3cc(OCCOC)c(OCCOCC#CC#CCOCC(=O)N[C@H](C(=O)N4C[C@H](O)C[C@@H]4C(=O)NCc4ccc(-c5scnc5C)cc4)C(C)(C)C)cc23)c1 [GNE-104, (2R,4R)-1-((S)-2-(2-((6-(2-((4-((3-Ethynylphenyl)amino)-7-(2-methoxyethoxy)quinazolin-6-yl)oxy)ethoxy)hexa-2,4-diyn-1-yl)oxy)acetamido)-3,3-dimethylbutanoyl)-4-hydroxy-N-(4-(4-methylthiazol-5-yl)benzyl)pyrrolidine-2-carboxamide]
reduction of absolute number and diversity of TraCe-seq barcodes (PC9 cells [1]; day four of treatment): less effective in reducing both the absolute number and the diversity of TraCe-seq barcodes
effect on kinase inhibitor activity (H1975 cells): attenuated kinase inhibitor activity
phospho-EGFR levels (EGFR): potently suppressed phospho-EGFR levels
EGFR degradation (EGFR): significant dose-dependent degradation of EGFR
anti-growth effect [2]: reduced anti-growth effect
ISR pathway / ATF4 and SLC7A5 expression (PC9 cells [3]): does not activate the ISR pathway
canonical MAPK target gene expression (PC9 cells [3]): strongly suppressed canonical MAPK target genes
anti-growth effects (inhibiting cell growth) (PC9 cells [4]): far less efficient in inhibiting cell growth compared to erlotinib and GNE-069; also recorded: less efficacious

C#Cc1cccc(Nc2ncnc3cc(OCCOC)c(OCCOC)cc23)c1 [Erlotinib]
reduction in viability (PC9 cells [5]): greater than 98%
cell cycle arrest (GO) (PC9 cells [1]): far greater cell cycle arrest (GO) than GNE-104
ISR pathway / ATF4 and SLC7A5 expression (PC9 cells [3]): additionally upregulated on Day 5 of Erlotinib treatment
canonical MAPK target gene expression (PC9 cells [3]): strongly suppressed canonical MAPK target genes
anti-growth effects (inhibiting cell growth) (PC9 cells [4]): comparable activity by all three measures
expression of key pro-death ISR genes downstream of ER stress (ATF4, CHOP, GADD34) (ATF4, CHOP, GADD34): significantly induced expression of key pro-death ISR genes

C=CC(=O)Nc1cc(Nc2nccc(-c3cn(C)c4ccccc34)n2)c(OC)cc1N(C)CCN(C)C [osimertinib]
expression of key pro-death ISR genes downstream of ER stress (ATF4, CHOP, GADD34) (ATF4, CHOP, GADD34): significantly induced expression of key pro-death ISR genes

C#Cc1cccc(Nc2ncnc3cc(OCCOC)c(OCCOCC#CC#CCOCC(=O)N[C@H](C(=O)N4C[C@@H](O)CC4C(=O)NCc4ccc(-c5scnc5C)cc4)C(C)(C)C)cc23)c1 (stereo in doubt) [GNE-069, (2R,4S)-1-((S)-2-(2-((6-(2-((4-((3-Ethynylphenyl)amino)-7-(2-methoxyethoxy)quinazolin-6-yl)oxy)ethoxy)hexa-2,4-diyn-1-yl)oxy)acetamido)-3,3-dimethylbutanoyl)-4-hydroxy-N-(4-(4-methylthiazol-5-yl)benzyl)pyrrolidine-2-carboxamide]
potency and selectivity profile in in vitro kinase inhibition assays [6]: comparable potency and selectivity profile as GNE-104
cell cycle arrest (GO) (PC9 cells [1]): far greater cell cycle arrest (GO) than GNE-104
EGFR degradation (EGFR): fails to engage VHL (due the specific stereochemistry in the VHL-binding moiety) and degrade EGFR
anti-growth effects (inhibiting cell growth) (PC9 cells [4]): comparable activity by all three measures

O=C(COc1ccc(Cl)cc1)NC1CCC(NC(=O)COc2ccc(Cl)cc2)CC1 (centres unmarked) [ISRIB]
cell killing by EGFR kinase inhibitors (PC9 and H1975 cells; ISRIB pre-treatment, PC9 and H1975 cells): decreased cell killing in both PC9 and H1975 cells
efficacy of Erlotinib on addition of ISRIB (cell viability) [7]: loss of efficacy of Erlotinib
activation of ATF4, CHOP, GADD34 induced by EGFR kinase inhibitors (ATF4, CHOP, GADD34; ISRIB for 24 hours before adding EGFR kinase inhibitor): blunted activation of ATF4, CHOP, and GADD34
